Read-outs that look alike come from different tables or passages of the source.
Test system: primary rat mixed cortical cells
Experiment: In vitro myelination assay (MBP positive myelin strands, fold myelin pixels above background)
Type: cell-based
Details: Rattus norvegicus; for fold induction at 1 µM: 1.0 μM compound; for fold induction at 10 µM: 10.0 μM compound
In short: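 Fourteen-day treatment of primary P1 rat mixed cortical cultures, re-dosed at days 6 and 10, at 1.0 μM and 10.0 μM. MBP immunofluorescence was imaged at 10× and myelin strands quantified by software, normalised to untreated wells as fold above background.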

[1] = relative to baseline of no added compound, read-out: Fold myelin pixels above background
[2] = relative to baseline of no added compound, read-out: Fold myelin pixels above background, 1.0 μM
[3] = relative to baseline of no added compound, read-out: Fold myelin pixels above background, 10.0 μM
[4] = read-out: Fold myelin pixels above background relative to baseline of no added compound

Structure (SMILES)	fold induction at 1 µM [1]	fold induction at 10 µM [1]	fold induction at 1 µM [2]	fold induction at 10 µM [3]	further results
Cc1cc(Nc2ncn(-c3cc(F)cc(F)c3)n2)cc(C2(F)CCN(C3COC3)CC2)c1 [Compound 515, 1-(3,5-difluorophenyl)-N-[3-[4-fluoro-1-(oxetan-3-yl)-4-piperidyl]-5-methyl-phenyl]-1,2,4-triazol-3-amine]	≤ 1	1 to 10	–	–	–
Cc1cc(Nc2ncn(-c3cc(F)cc(F)c3)n2)nc(N2CCN(C3CCOC3)CC2)c1 (centres unmarked) [Compound 562, N-[1-(3,5-difluorophenyl)-1,2,4-triazol-3-yl]-4-methyl-6-(4-tetrahydrofuran-3-ylpiperazin-1-yl)pyridin-2-amine]	1 to 10	1 to 10	–	–	–
Cc1cc(Nc2ncn(-c3ccccc3)n2)cc(N2CCS(=O)(=O)CC2)c1 [Compound 89, N-[3-(1,1-dioxo-1,4-thiazinan-4-yl)-5-methyl-phenyl]-1-phenyl-1,2,4-triazol-3-amine]	–	–	1000 to 10000	100 to 1000	–
Cc1cc(Nc2ncn(-c3cc(F)cc(F)c3)n2)cc(N2CCC(N3CCOCC3)CC2)c1 [Compound 324, 1-(3,5-difluorophenyl)-N-[3-methyl-5-(4-morpholino-1-piperidyl)phenyl]-1,2,4-triazol-3-amine]	–	–	1 to 10	10 to 100	–
Cc1cc(Nc2ncn(-c3cc(F)cc(F)c3)n2)cc(N2CCC(N3CCC(O)CC3)CC2)c1 [Compound 879, 1-[1-[3-[[1-(3,5-difluorophenyl)-1,2,4-triazol-3-yl]amino]-5-methyl-phenyl]-4-piperidyl]piperidin-4-ol]	–	–	–	–	fold induction at 1 µM [4]: ≤ 1; fold induction at 10 µM [4]: ≤ 1
Cc1cc(Nc2ncn(-c3cc(F)cc(F)c3)n2)cc(N2CC(C)(N3CCOCC3)C2)c1 [Compound 683, 1-(3,5-difluorophenyl)-N-[3-methyl-5-(3-methyl-3-morpholino-azetidin-1-yl)phenyl]-1,2,4-triazol-3-amine]	10 to 100	10 to 100	–	–	–
Cc1cc(NCCN2CC(C)OCC2C)cc(Nc2ncn(-c3cc(F)cc(F)c3)n2)c1 (centres unmarked) [Compound 1003, N1-[1-(3,5-difluorophenyl)-1,2,4-triazol-3-yl]-N3-[2-(2,5-dimethylmorpholin-4-yl)ethyl]-5-methyl-benzene-1,3-diamine]	–	–	–	–	fold induction at 1 µM [4]: 10 to 100; fold induction at 10 µM [4]: ≤ 1
Cc1cc(N2CCN(C3COC3)CC2)cc(Nc2ncn(-c3cc(F)cc(F)c3)n2)c1C [Compound 425, 1-(3,5-difluorophenyl)-N-[2,3-dimethyl-5-[4-(oxetan-3-yl)piperazin-1-yl]phenyl]-1,2,4-triazol-3-amine]	1 to 10	100 to 1000	–	–	–
Cc1cc(N2CCOCC2)cc(Nc2ncn(-c3cccnc3)n2)c1F [Compound 451, N-(2-fluoro-3-methyl-5-morpholino-phenyl)-1-(3-pyridyl)-1,2,4-triazol-3-amine]	1 to 10	100 to 1000	–	–	–
COCCN(C)C(=O)C1CN(c2cc(C)cc(Nc3ncn(-c4cc(F)cc(F)c4)n3)c2)C1 [Compound 824, 1-[3-[[1-(3,5-difluorophenyl)-1,2,4-triazol-3-yl]amino]-5-methyl-phenyl]-N-(2-methoxyethyl)-N-methyl-azetidine-3-carboxamide]	–	–	–	–	fold induction at 1 µM [4]: 10 to 100; fold induction at 10 µM [4]: 1 to 10
Cc1cc(Nc2ncn(-c3cc(F)ccc3F)n2)cc(N2CCN(C3COC3)CC2)c1 [Compound 437, 1-(2,5-difluorophenyl)-N-[3-methyl-5-[4-(oxetan-3-yl)piperazin-1-yl]phenyl]-1,2,4-triazol-3-amine]	10 to 100	10 to 100	–	–	–
Cc1cc(Nc2ncn(-c3cc(F)cc(F)c3)n2)nc(N2CC3(CCOC3)C2)c1 [Compound 570, N-[1-(3,5-difluorophenyl)-1,2,4-triazol-3-yl]-4-methyl-6-(7-oxa-2-azaspiro[3.4]octan-2-yl)pyridin-2-amine]	≤ 1	1 to 10	–	–	–
CC(=O)N1CCC(Oc2cc(C)cc(Nc3ncn(-c4cc(F)cc(F)c4)n3)c2)CC1 [Compound 805, 1-[4-[3-[[1-(3,5-difluorophenyl)-1,2,4-triazol-3-yl]amino]-5-methyl-phenoxy]-1-piperidyl]ethanone]	–	–	–	–	fold induction at 1 µM [4]: 10 to 100; fold induction at 10 µM [4]: 1 to 10
Cc1cc(Nc2ncn(-c3cc(F)cc(F)c3)n2)cc(N2CCC(N3CCCC(O)C3)CC2)c1 (centres unmarked) [Compound 1054, 1-[1-[3-[[1-(3,5-difluorophenyl)-1,2,4-triazol-3-yl]amino]-5-methyl-phenyl]-4-piperidyl]piperidin-3-ol]	–	–	–	–	fold induction at 1 µM [4]: ≤ 1; fold induction at 10 µM [4]: ≤ 1
COC(=O)N1CCN(c2cc(C)cc(Nc3ncn(-c4cc(F)cc(F)c4)n3)c2)CC1 [Compound 422, methyl 4-[3-[[1-(3,5-difluorophenyl)-1,2,4-triazol-3-yl]amino]-5-methyl-phenyl]piperazine-1-carboxylate]	≤ 1	100 to 1000	–	–	–
[2H]C1([2H])N(c2cc(C)cc(Nc3ncn(-c4cc(F)cc(F)c4)n3)c2)C([2H])([2H])C([2H])([2H])N(C2CCCOC2)C1([2H])[2H] (centres unmarked) [Compound 926, 1-(3,5-difluorophenyl)-N-[3-methyl-5-(2,2,3,3,5,5,6,6-octadeuterio-4-tetrahydropyran-3-yl-piperazin-1-yl)phenyl]-1,2,4-triazol-3-amine]	–	–	–	–	fold induction at 1 µM [4]: 10 to 100; fold induction at 10 µM [4]: 1 to 10

Structure (SMILES)	fold induction at 1 µM [1]	fold induction at 10 µM [1]	fold induction at 1 µM [2]	fold induction at 10 µM [3]	further results
Cc1cc(Nc2ncn(-c3ccccc3)n2)cc(N2CCNC(C)C2)c1 (centres unmarked) [Compound 259, N-[3-methyl-5-(3-methylpiperazin-1-yl)phenyl]-1-phenyl-1,2,4-triazol-3-amine]	–	–	1000 to 10000	≤ 1	–
Cc1cc(Nc2ncn(-c3cc(F)cc(F)c3)n2)cc(C2CN(C3COC3)CCO2)c1 (centres unmarked) [Compound 581, 1-(3,5-difluorophenyl)-N-[3-methyl-5-[4-(oxetan-3-yl)morpholin-2-yl]phenyl]-1,2,4-triazol-3-amine]	10 to 100	≤ 1	–	–	–
COC1CCCN(c2cc(C)cc(Nc3ncn(-c4cc(F)cc(F)c4)n3)c2)C1 (centres unmarked) [Compound 293, 1-(3,5-difluorophenyl)-N-[3-(3-methoxy-1-piperidyl)-5-methyl-phenyl]-1,2,4-triazol-3-amine]	–	–	10 to 100	10 to 100	–
COCc1cc(-n2cnc(Nc3cc(C)cc(N4CCN(C5COC5)CC4)c3)n2)ncn1 [Compound 364, 1-[6-(methoxymethyl)pyrimidin-4-yl]-N-[3-methyl-5-[4-(oxetan-3-yl)piperazin-1-yl]phenyl]-1,2,4-triazol-3-amine]	–	–	1 to 10	10 to 100	–
Cc1cc(Nc2ncn(-c3cc(F)cc(F)c3)n2)cc([C@@]2(C)CN(C)C(=O)O2)c1 (single isomer, unassigned) [Compound 611]	10 to 100	1 to 10	–	–	–
N#Cc1cc(Nc2ncn(-c3cc(F)cc(F)c3)n2)nc(N2CCN(C3COC3)CC2)c1 [Compound 853, 2-[[1-(3,5-difluorophenyl)-1,2,4-triazol-3-yl]amino]-6-[4-(oxetan-3-yl)piperazin-1-yl]pyridine-4-carbonitrile]	–	–	–	–	fold induction at 1 µM [4]: 1 to 10; fold induction at 10 µM [4]: 10 to 100
Cc1cc(Nc2ncn(-c3cc(F)cc(F)c3)n2)cc(N2CCN(C)CC2)c1 [Compound 37, 1-(3,5-difluorophenyl)-N-[3-methyl-5-(4-methylpiperazin-1-yl)phenyl]-1,2,4-triazol-3-amine]	–	–	100 to 1000	≤ 1	–
Fc1cccc(-n2cnc(Nc3cc(Cl)cc(N4CC(N5CCOCC5)C4)c3)n2)c1 [Compound 827, N-[3-chloro-5-(3-morpholinoazetidin-1-yl)phenyl]-1-(3-fluorophenyl)-1,2,4-triazol-3-amine]	–	–	–	–	fold induction at 1 µM [4]: 10 to 100; fold induction at 10 µM [4]: 1 to 10
Cc1cc(Nc2ncn(-c3cc(F)cc(F)c3)n2)cc(C2CCNCC2)c1 [Compound 108, 1-(3,5-difluorophenyl)-N-[3-methyl-5-(4-piperidyl)phenyl]-1,2,4-triazol-3-amine]	–	–	10 to 100	≤ 1	–
Cc1cc(Nc2ncn(-c3ccccc3)n2)cc(N2CCC(C)(O)C2)c1 (centres unmarked) [Compound 6]	–	–	100 to 1000	10 to 100	–
Fc1ccc(-n2cnc(Nc3cc(C4CC4)nc(N4CCOCC4)c3)n2)cc1F [Compound 88, 2-cyclopropyl-N-[1-(3,4-difluorophenyl)-1,2,4-triazol-3-yl]-6-morpholino-pyridin-4-amine]	–	–	1000 to 10000	1000 to 10000	–
Cc1cc(Nc2ncn(-c3cncc(F)c3)n2)cc(C2COC2)c1 [Compound 447, 1-(5-fluoro-3-pyridyl)-N-[3-methyl-5-(oxetan-3-yl)phenyl]-1,2,4-triazol-3-amine]	10 to 100	10 to 100	–	–	–
Cc1cc(Nc2ncn(-c3cc(F)cc(F)c3)n2)cc(N2CCN(C3CS(=O)(=O)C3)CC2)c1 [Compound 228, 1-(3,5-difluorophenyl)-N-[3-[4-(1,1-dioxothietan-3-yl)piperazin-1-yl]-5-methyl-phenyl]-1,2,4-triazol-3-amine]	–	–	10 to 100	100 to 1000	–
Cc1cc(Nc2ncn(-c3ccccc3)n2)cc(N2CCN(C3CCCOC3)CC2)c1 (centres unmarked) [Compound 172, N-[3-methyl-5-(4-tetrahydropyran-3-ylpiperazin-1-yl)phenyl]-1-phenyl-1,2,4-triazol-3-amine]	–	–	1000 to 10000	1 to 10	–
Cc1cc(Nc2ncn(-c3cccc(C(F)(F)F)c3)n2)cc(N2CC(N3CCOCC3)C2)c1 [Compound 651, N-[3-methyl-5-(3-morpholinoazetidin-1-yl)phenyl]-1-[3-(trifluoromethyl)phenyl]-1,2,4-triazol-3-amine]	10 to 100	1 to 10	–	–	–

From patent US10766869B2, “Triazoles for the treatment of demyelinating dieases” (Vertex Pharmaceuticals Incorporated, priority 2015, dated 2020)
